Assays:
SOD and MDA = assay: Oxidative stress biomarker assay (SOD, MDA) in brain tissue of MCAO rats; type: in vivo; conditions: whole brain homogenate, POC 4.5 mg/kg iv compared with the paeonol and OS groups (3 mg/kg iv), n = 6
Protocol: (§1) Male Sprague Dawley (SD) rats weighing among 220 g–230 g (Anhui Medicine University, Hefei, China; certificate number: SCXK20190,003) were housed under ad libitum access to food and water with a standardized light-dark cycle condition (25 ± 2°C, 12–hour light/dark cycle). All the experimental protocols were performed in accordance with the Institutional Animal Care and Use Committee of Anhui University of Chinese Medicine (Animal ethics number: AHUCM–rats–2019001). We used the minimal number of study animals (n = 6 rats in each group for different experiments). The rats were fastened upon the operating table in a supine position after being anesthetized with 2% pelltobarbitalum natricum (50 mg/kg). After disinfection of the skin within close proximity of the operative region, the right common carotid artery (CCA), external carotid artery (ECA) and internal carotid artery (ICA) were exposed with blunt dissection. The CCA was temporarily ligated and the ECA were permanently ligated ([Liu et al., 2016]). A nylon monofilament surgical thread was introduced into the ICA to block the MCA when the blunted distal end met resistance. After 2 h of occlusion, reperfusion was accomplished to restore blood supply to the MCA area by removing the filament ([Li et al., 2009]; [Zhai et al., 2017]). […] A microplate reader was used to measure the absorbance at 450 and 532 nm with a UV spectrophotometer. […]

[1] = test system: middle cerebral artery occlusion (MCAO) rats; assay: HE staining, histopathologic changes in brain cortex of MCAO rats; type: in vivo; conditions: 24 h after treatment, POC 4.5 mg/kg iv, compared with the model group, n = 3
Protocol: as §1, with “Rats were split randomly into five groups, including” for “A microplate reader was used to measure”, “sham, model, paeonol, OS” for “absorbance at 450”, “POC group.” for “532 nm with a UV spectrophotometer.”

[2] = Partition coefficient, shake-flask method (n-octanol / aqueous phase); type: physicochemical; conditions: n-octanol / aqueous phase buffered with phosphate pH 7.4, shake-flask, HPLC
Protocol: The partition coefficient of POC was established by the shake-flask method between n–octanol and an aqueous phase ([Redasani and Bari, 2012]). The aqueous phase buffered with phosphate (pH 7.4, 100 ml) and n–octanol (100 ml) was mixed well, placed in a shaking air bath for 72 h, and then left to equilibrate until the two saturated phases completely separated. POC (5 mg) was dissolved in 50 ml of saturated n-octanol and diluted with the saturated aqueous equally. The mixture was placed in an oscillator and shaken for 1 h until the two phases separated. Concentration was analyzed by HPLC method and then the partition coefficient was calculated as the ratio of the concentration of POC in n–octanol to aqueous. All experiments were made in triplicate.

logD [2]: 0.425
SMILES: COc1ccc(C(C)=O)c(OC(=O)C=Cc2ccc(Cn3ccnc3)cc2)c1 [POC, paeonol-ozagrel conjugate]
MDA levels in brain tissue (SOD and MDA): lowest MDA levels
SOD levels in brain tissue (SOD and MDA): highest SOD levels
histopathologic changes in brain cortex (HE) [1]: only marginal neuronal cells damage
